Laboratory results reported in ChEMBL document CHEMBL5375988, “AcGlcAs: A Novel P53-Targeting Arsenical with Potent Cellular Uptake and Cancer Cell Selectivity” (J Med Chem, 2023).
Activity calls are given as the source filed them. The rule behind the calls is not given here. Peptide text beside a SMILES is read from it. * marks the point of attachment. Cbz = O=C(OCc1ccccc1)*; CH2F = FC*

Experiments:
[1] = target: Replicase polyprotein 1ab (Severe acute respiratory syndrome coronavirus 2) (UniProt P0DTD1); experiment: Binding affinity to SARS-CoV-2 MPro with exposed Cys145 assessed as increase in melting temperature at 1:15 ratio in HEPES at pH 7.5 by DSF analysis
[2] = tested on: Cellular tumor antigen p53 (Homo sapiens), P04637 [V272M]; experiment: Thermostabilization of recombinant p53 V272M mutant (unknown origin) […] assessed as increase in melting temperature at 1:15 ratio in HEPES at pH 7.5 by DSF analysis
NB-4 [3] = experiment: Antiproliferative activity against human NB4 cells expressing PML/RARalpha assessed as cell growth inhibition measured after 48 hrs by CCK-8 assay; type: functional, cell-based
[4] = target: T1, PML-RARalpha (Homo sapiens) (UniProt P10276+P29590); experiment: Induction of Flag-tagged PML/RARalpha (unknown origin) degradation overexpressed in HEK293T cells at 7.2 to 36 uM incubated for 16 hrs by Western blot analysis; type: cell-based; settings: dose 7.2-36 µM
[5] = tested on: Cellular tumor antigen p53 (Homo sapiens), P04637 [V272M]; experiment: Restoration of p53-V272M mutant transcriptional activity on PUMA promoter in human NCI-H1299 cells at 22 uM measured after 24 hrs by firefly/renilla based luciferase reporter assay; type: cell-based; settings: filed as activator
[6] = tested on: Cellular tumor antigen p53 (Homo sapiens), P04637 [V272M]; experiment: Restoration of p53-V272M mutant transcriptional activity on CDKN1A promoter in human NCI-H1299 cells at 22 uM measured after 24 hrs by firefly/renilla based luciferase reporter assay; type: cell-based; settings: filed as activator
[7] = target: T1, PML-RARalpha (Homo sapiens); experiment: Induction of Flag-tagged PML/RARalpha (unknown origin) degradation overexpressed in HEK293T cells at 0.3 to 1.5 uM incubated for 16 hrs by Western blot analysis; type: cell-based; settings: dose 0.3-1.5 µM
NB-4 [8] = experiment: Induction of apoptosis in human NB4 cells assessed as viable cells at 3 uM preincubated for 1 hrs followed by replacement with fresh culture medium and measured after 24 hrs by Annexin V-FITC/7AAD staining based flow cytometry assay (reference value: 94%); type: functional; settings: read-out: Activity
[9] = Half life in iv dosed rat; type: ADME, organism-based; settings: in vivo
NB-4 [10] = experiment: Induction of apoptosis in human NB4 cells assessed as necrotic cells at 27 uM preincubated for 1 hrs followed by replacement with fresh culture medium and measured after 24 hrs by Annexin V-FITC/7AAD staining based flow cytometry assay (reference value: 0.10%); type: functional
NB-4 [11] = experiment: Induction of granulocytic differentiation in human NB4 cells assessed as increase in CD11b expression at 3 uM incubated for 1 hrs followed by replacement with fresh culture medium for 48 hrs by flow cytometry analysis (reference value: 1.44%); type: functional
NB-4 [12] = experiment: Induction of apoptosis in human NB4 cells assessed as early apoptotic cells at 3 uM preincubated for 1 hrs followed by replacement with fresh culture medium and measured after 24 hrs by Annexin V-FITC/7AAD staining based flow cytometry assay (reference value: 1.93%); type: functional
[13] = target: T1, PML-RARalpha (Homo sapiens); experiment: Induction of PML/RARalpha degradation in human NB4 cells assessed as residual protein level at 1 uM incubated for 1 hrs followed by replacement with fresh culture medium and measured after 16 hrs by Western blot analysis (reference value: 1); type: cell-based
NB-4 [14] = experiment: Induction of granulocytic differentiation in human NB4 cells assessed as increase in CD11b expression at 9 uM incubated for 1 hrs followed by replacement with fresh culture medium for 48 hrs by flow cytometry analysis (reference value: 1.44%); type: functional
NB-4 [15] = experiment: Induction of apoptosis in human NB4 cells assessed as late apoptotic cells at 27 uM preincubated for 1 hrs followed by replacement with fresh culture medium and measured after 24 hrs by Annexin V-FITC/7AAD staining based flow cytometry assay (reference value: 3.92%); type: functional
NB-4 [16] = experiment: Induction of apoptosis in human NB4 cells assessed as viable cells at 27 uM preincubated for 1 hrs followed by replacement with fresh culture medium and measured after 24 hrs by Annexin V-FITC/7AAD staining based flow cytometry assay (reference value: 94%); type: functional; settings: read-out: Activity
NB-4 [17] = experiment: Induction of apoptosis in human NB4 cells assessed as necrotic cells at 3 uM preincubated for 1 hrs followed by replacement with fresh culture medium and measured after 24 hrs by Annexin V-FITC/7AAD staining based flow cytometry assay (reference value: 0.10%); type: functional
NB-4 [18] = experiment: Induction of granulocytic differentiation in human NB4 cells assessed as CD11b positive cells at 9 uM incubated for 1 hrs followed by replacement with fresh culture medium for 48 hrs by flow cytometry analysis relative to control; type: functional
NB-4 [19] = experiment: Induction of apoptosis in human NB4 cells assessed as necrotic cells at 9 uM preincubated for 1 hrs followed by replacement with fresh culture medium and measured after 24 hrs by Annexin V-FITC/7AAD staining based flow cytometry assay (reference value: 0.10%); type: functional
[20] = Half life in po dosed human; type: ADME, organism-based; settings: in vivo
[21] = Half life in iv dosed mouse; type: ADME, organism-based; settings: in vivo
[22] = target: T1, PML-RARalpha (Homo sapiens); experiment: Induction of PML/RARalpha degradation in human NB4 cells assessed as residual protein level at 0.1 uM incubated for 1 hrs followed by replacement with fresh culture medium and measured after 16 hrs by Western blot analysis (reference value: 1); type: cell-based
NB-4 [23] = experiment: Induction of granulocytic differentiation in human NB4 cells assessed as CD11b positive cells at 3 uM incubated for 1 hrs followed by replacement with fresh culture medium for 48 hrs by flow cytometry analysis relative to control; type: functional
NB-4 [24] = experiment: Induction of apoptosis in human NB4 cells assessed as viable cells at 9 uM preincubated for 1 hrs followed by replacement with fresh culture medium and measured after 24 hrs by Annexin V-FITC/7AAD staining based flow cytometry assay (reference value: 94%); type: functional; settings: read-out: Activity
NB-4 [25] = experiment: Induction of apoptosis in human NB4 cells assessed as early apoptotic cells at 9 uM preincubated for 1 hrs followed by replacement with fresh culture medium and measured after 24 hrs by Annexin V-FITC/7AAD staining based flow cytometry assay (reference value: 1.93%); type: functional
U-937 [26] = experiment: Cytotoxicity against p53 null human U-937 cells harboring empty vector incubated for 48 hrs by CCK-8 assay; type: functional, cell-based; settings: U-937, 48 h
U-937 [27] = experiment: Cytotoxicity against p53 null human U-937 cells harboring p53 V272M mutant incubated for 48 hrs by CCK-8 assay; type: functional, cell-based; settings: U-937, 48 h
[28] = Half life in iv dosed human; type: ADME, organism-based; settings: in vivo
NB-4 [29] = experiment: Induction of apoptosis in human NB4 cells assessed as early apoptotic cells at 27 uM preincubated for 1 hrs followed by replacement with fresh culture medium and measured after 24 hrs by Annexin V-FITC/7AAD staining based flow cytometry assay (reference value: 1.93%); type: functional
NB-4 [30] = experiment: Induction of apoptosis in human NB4 cells assessed as late apoptotic cells at 9 uM preincubated for 1 hrs followed by replacement with fresh culture medium and measured after 24 hrs by Annexin V-FITC/7AAD staining based flow cytometry assay (reference value: 3.92%); type: functional
[31] = target: T1, PML-RARalpha (Homo sapiens); experiment: Induction of PML/RARalpha degradation in human NB4 cells assessed as residual protein level at 9 uM incubated for 1 hrs followed by replacement with fresh culture medium and measured after 16 hrs by Western blot analysis (reference value: 1); type: cell-based
[32] = target: T1, PML-RARalpha (Homo sapiens); experiment: Induction of PML/RARalpha degradation in human NB4 cells assessed as residual protein level at 0.3 uM incubated for 1 hrs followed by replacement with fresh culture medium and measured after 16 hrs by Western blot analysis (reference value: 1); type: cell-based
[33] = tested on: Cellular tumor antigen p53 (Homo sapiens), P04637 [V272M]; experiment: Rescue of p53-V272M mutant transcriptional activity on PUMA promoter in human NCI-H1299 cells assessed as fold change in transcriptional activity at 10 uM pretreated for 10 mins to1 hr followed by replacement with fresh culture media and measured after 24 hrs by firefly/renilla based luciferase reporter assay; type: cell-based; settings: filed as activator, time 10-60 min
NB-4 [34] = experiment: Induction of apoptosis in human NB4 cells assessed as late apoptotic cells at 3 uM preincubated for 1 hrs followed by replacement with fresh culture medium and measured after 24 hrs by Annexin V-FITC/7AAD staining based flow cytometry assay (reference value: 3.92%); type: functional
[35] = target: T1, PML-RARalpha (Homo sapiens); experiment: Induction of PML/RARalpha degradation in human NB4 cells assessed as residual protein level at 3 uM incubated for 1 hrs followed by replacement with fresh culture medium and measured after 16 hrs by Western blot analysis (reference value: 1); type: cell-based
[36] = target: T1, PML-RARalpha (Homo sapiens); experiment: Induction of Flag-tagged PML/RARalpha (unknown origin) degradation overexpressed in HEK293T cells at 13 to 65 uM incubated for 16 hrs by Western blot analysis; type: cell-based; settings: dose 13-65 µM
[37] = tested on: GTPase KRas (Homo sapiens), P01116 [G12C]; experiment: Binding affinity to KRAS-G12C mutant (unknown origin) with exposed Cys12 assessed as increase in melting temperature at 1:15 ratio in HEPES at pH 7.5 by DSF analysis
[38] = Plasma stability in dog assessed as half life at […] measured upto 120 mins by LC-MS analysis; type: ADME, cell-free, Canis lupus familiaris
[39] = target: T1, PML-RARalpha (Homo sapiens); experiment: Induction of Flag-tagged PML/RARalpha (unknown origin) degradation overexpressed in HEK293T cells at 4.2 to 21 uM incubated for 16 hrs by Western blot analysis; type: cell-based; settings: dose 4.2-21 µM
[40] = Plasma stability in monkey assessed as half life at […] measured upto 120 mins by LC-MS analysis; type: ADME, cell-free, Macaca mulatta; settings: rhesus monkey
[41] = Plasma stability in mouse assessed as half life at […] measured upto 120 mins by LC-MS analysis; type: ADME, cell-free
[42] = Plasma stability in human assessed as half life at […] measured upto 120 mins by LC-MS analysis; type: ADME, cell-free

T1 sequence (P10276 whole entry, looked up): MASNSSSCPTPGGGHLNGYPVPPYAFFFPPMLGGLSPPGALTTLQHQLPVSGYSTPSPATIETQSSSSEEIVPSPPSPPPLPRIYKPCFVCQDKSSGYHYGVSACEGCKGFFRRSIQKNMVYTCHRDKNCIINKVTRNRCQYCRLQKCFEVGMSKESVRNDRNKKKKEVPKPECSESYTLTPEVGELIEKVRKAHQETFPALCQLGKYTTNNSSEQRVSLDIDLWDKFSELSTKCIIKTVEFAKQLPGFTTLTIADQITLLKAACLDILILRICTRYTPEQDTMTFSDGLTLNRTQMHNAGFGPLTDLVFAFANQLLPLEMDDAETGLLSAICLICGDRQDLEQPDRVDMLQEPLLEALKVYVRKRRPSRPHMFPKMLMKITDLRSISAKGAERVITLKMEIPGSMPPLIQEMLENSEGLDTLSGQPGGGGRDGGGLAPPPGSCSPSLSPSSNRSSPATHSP
T1 sequence (P29590 whole entry, looked up): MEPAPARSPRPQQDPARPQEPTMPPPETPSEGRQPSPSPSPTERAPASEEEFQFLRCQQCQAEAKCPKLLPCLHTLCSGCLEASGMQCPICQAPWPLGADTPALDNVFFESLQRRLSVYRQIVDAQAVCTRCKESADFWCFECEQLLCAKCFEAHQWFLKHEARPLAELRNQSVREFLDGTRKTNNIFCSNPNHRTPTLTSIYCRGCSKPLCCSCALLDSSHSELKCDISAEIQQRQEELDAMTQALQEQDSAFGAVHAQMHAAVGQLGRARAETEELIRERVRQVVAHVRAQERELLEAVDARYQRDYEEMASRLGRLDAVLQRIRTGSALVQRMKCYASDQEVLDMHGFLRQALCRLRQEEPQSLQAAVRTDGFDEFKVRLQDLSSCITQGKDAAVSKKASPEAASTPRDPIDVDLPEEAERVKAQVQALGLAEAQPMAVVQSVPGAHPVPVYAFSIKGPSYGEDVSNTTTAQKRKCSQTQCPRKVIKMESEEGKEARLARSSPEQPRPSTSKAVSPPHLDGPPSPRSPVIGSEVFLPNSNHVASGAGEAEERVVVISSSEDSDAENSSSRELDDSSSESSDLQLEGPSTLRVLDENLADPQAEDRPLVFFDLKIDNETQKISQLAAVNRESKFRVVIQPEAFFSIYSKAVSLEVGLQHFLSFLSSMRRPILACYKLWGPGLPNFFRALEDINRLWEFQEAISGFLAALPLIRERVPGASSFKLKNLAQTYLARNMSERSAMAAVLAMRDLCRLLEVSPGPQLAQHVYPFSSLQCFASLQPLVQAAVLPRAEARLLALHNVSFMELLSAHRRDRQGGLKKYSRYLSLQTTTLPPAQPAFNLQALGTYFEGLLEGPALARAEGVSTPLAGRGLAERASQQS
Sequence of GTPase KRas (Homo sapiens), P01116 [G12C] (P01116 whole entry G12C): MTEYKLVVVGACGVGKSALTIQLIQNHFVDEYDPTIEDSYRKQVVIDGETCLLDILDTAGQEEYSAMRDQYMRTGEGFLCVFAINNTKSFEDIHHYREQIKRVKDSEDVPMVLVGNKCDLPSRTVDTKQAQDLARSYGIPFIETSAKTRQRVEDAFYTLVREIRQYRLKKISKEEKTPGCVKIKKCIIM

## COC(=O)C[C@H](NC(=O)[C@H](C)NC(=O)[C@@H](NC(=O)OCc1ccccc1)C(C)C)C(=O)CF (Cbz-Val-Ala-Asp(OMe)-CH2F)
[1]
  Activity: Active

## S=[As][As]=S (stereo not given)
[2]
  Activity: inactive

## S=[As](=S)S[As](=S)=S
NB-4 [3]; nb-4
  IC50: 1.2 µM
[4]
  Activity: Active
[5]
  Activity: Active
[6]
  Activity: Active

## O=[As]O [SODIUM ARSENITE]
NB-4 [3]; Homo sapiens, NB-4, 48 h
  IC50: 0.11 µM
[7]
  Activity: Active

## O=[As][As+](=O)[O-] (stereo not given) [ARSENIC TRIOXIDE]
NB-4 [8]
  viability at 3 µM: 93.8%
[9]
  half-life: ~222 min
NB-4 [10]
  Activity: 0.21%
NB-4 [11]
  Activity: 1.65%
NB-4 [12]
  Activity: 2.54%
[13]
  Activity: 0.57
NB-4 [14]
  Activity: 1.93%
NB-4 [15]
  Activity: 3.59%
NB-4 [16]
  viability at 27 µM: 93.3%
NB-4 [17]
  Activity: 0.23%
NB-4 [18]
  Activity: 2%
NB-4 [19]
  Activity: 0.17%
NB-4 [3]; Homo sapiens, NB-4, 48 h
  IC50: 0.94 µM
[20]
  half-life: 360 min
[21]
  half-life: ~258 min
[22]
  Activity: 0.81
NB-4 [23]
  Activity: 1.7%
NB-4 [24]
  viability at 9 µM: 93.6%
NB-4 [25]
  Activity: 2.83%
U-937 [26]
  IC50: > 2 µM
U-937 [27]
  IC50: 1.07 µM
[28]
  half-life: 60 min
NB-4 [29]
  Activity: 2.88%
NB-4 [30]
  Activity: 3.42%
[31]
  Activity: 0.41
[32]
  Activity: 0.6
[33]
  fold change (FC): 2.2
NB-4 [34]
  Activity: 3.48%
[35]
  Activity: 0.49

## O=[As]12O[As]3(=O)O[As](=O)(O1)O[As](=O)(O2)O3
[36]
  Activity: Active
NB-4 [3]; nb-4
  IC50: 5.56 µM

## O=S(=O)(O)c1cc(O)c2c(O)c(/N=N/c3ccccc3[As](=O)(O)O)c(S(=O)(=O)O)cc2c1
NB-4 [3]; Homo sapiens, NB-4, 48 h
  IC50: > 50 µM

## C=CC(=O)N1CCN(c2ncnc3c(F)c(-c4c(O)cccc4F)c(Cl)cc23)CC1
[37]
  Activity: Active

## Nc1ccc([As](=O)(O)O)cc1 [ARSANILIC ACID]
NB-4 [3]; Homo sapiens, NB-4, 48 h
  IC50: > 50 µM

## CC(=O)Oc1ccc(C(c2ccc(OC(C)=O)cc2)c2ccccn2)cc1 [BISACODYL]
[38]
  half-life: 2.06 min

## S1[As]2S[As]3S[As]1S[As](S2)S3
[39]
  Activity: Active
NB-4 [3]; nb-4
  IC50: 1.99 µM
[2]
  Activity: inactive

## CCN(CC)CCOC(=O)c1ccc(N)cc1 [PROCAINE]
[40]
  half-life: 4.5 min
[41]
  half-life: 9.83 min
[42]
  half-life: 1.4 min

## S1[As]2S[As]3S[As]2S[As]13
[2]
  Activity: inactive
